pIC50: −log10 of the molar value.
Experiments:
[1] = tested on: HeLa; assay: Anticancer activity against human HeLa cells after 24 hrs by MTT assay; format: functional, cell-based
[2] = tested on: HeLa; assay: Viability of human HeLa cells at 1 uM after 24 hrs by MTT assay
[3] = tested on: HeLa; assay: Viability of human HeLa cells at 5 uM after 24 hrs by MTT assay
[4] = tested on: HeLa; assay: Viability of human HeLa cells at 10 uM after 24 hrs by MTT assay
[5] = tested on: HeLa; assay: Viability of human HeLa cells at 20 uM after 24 hrs by MTT assay
[6] = tested on: HeLa; assay: Viability of human HeLa cells at 0.1 uM after 24 hrs by MTT assay

SMILES | pIC50 [1] | viability at 1 µM [2] [%] | viability at 5 µM [3] [%] | viability at 10 µM [4] [%] | viability at 20 µM [5] [%] | viability at 0.1 µM [6] [%]
CC1CCC(C(C)C)C(O[C@H]2OC(=O)C(Br)=C2Sc2nnc(-c3ccc([N+](=O)[O-])cc3)s2)C1 (some centres not stated) | 6.05 | 47.6 | 30 | 34.5 | 24.5 | 59.2
CC1CCC(C(C)C)C(O[C@H]2OC(=O)C(Br)=C2Sc2nnc(-c3ccccc3)s2)C1 (some centres not stated) | 5.52 | 59.1 | 40.6 | 28.1 | 29.7 | 56.1
CC1CCC(C(C)C)C(O[C@H]2OC(=O)C(Br)=C2Sc2nnc(-c3ccccc3O)s2)C1 (some centres not stated) | 5.54 | 61.2 | 37.5 | 42.3 | 33.4 | 58.9
CC1CCC(C(C)C)C(O[C@H]2OC(=O)C(Br)=C2Sc2nnc(-c3ccco3)s2)C1 (some centres not stated) | 5.77 | 54.3 | 29.4 | 36.9 | 27.2 | 55.6
CC1CCC(C(C)C)C(O[C@H]2OC(=O)C(Br)=C2Sc2nnc(-c3cccnc3)s2)C1 (some centres not stated) | 5.25 | 59.5 | 52.3 | 32.8 | 33 | 56.4
CC1CCC(C(C)C)C(O[C@H]2OC(=O)C(Br)=C2Sc2nnc(-c3ccc(Cl)cc3)s2)C1 (some centres not stated) | 5.66 | 58.2 | 29.3 | 35.1 | 26.8 | 51
CC1(C)C2CCC1(C)C(O[C@H]1OC(=O)C(Br)=C1Sc1nnc(-c3cccnc3)s1)C2 (some centres not stated) | 5.47 | 56.3 | 45.4 | 40.5 | 36.3 | 58.9
CC1(C)C2CCC1(C)C(O[C@H]1OC(=O)C(Br)=C1Sc1nnc(-c3ccncc3)s1)C2 (some centres not stated) | 5.52 | 55.1 | 44.9 | 39.4 | 40.6 | 51.8
CC1(C)C2CCC1(C)C(O[C@H]1OC(=O)C(Br)=C1Sc1nnc(-c3ccco3)s1)C2 (some centres not stated) | 5.89 | 51.4 | 31.1 | 28.6 | 34.3 | 50.9
COc1ccc(-c2nnc(SC3=C(Br)C(=O)O[C@@H]3OC3CC(C)CCC3C(C)C)s2)cc1 (some centres not stated) | 5.43 | 55.6 | 47.1 | 35.6 | 32.9 | 56.4
CC1CCC(C(C)C)C(O[C@H]2OC(=O)C(Br)=C2Sc2nnc(-c3ccncc3)s2)C1 (some centres not stated) | 5.89 | 51.3 | 33.9 | 26.8 | 22.3 | 73.8
CC1CCC(C(C)C)C(O[C@H]2OC(=O)C(Br)=C2Sc2nnc(-c3ccc(O)cc3)s2)C1 (some centres not stated) | 5.59 | 59.4 | 36 | 44.4 | 36 | 60.6
